Experimental data as given in patent publication US7972815B2, “Method of producing sugar chain using human G4 polypeptide” (Kyowa Hakko Kirin Co., Ltd., priority 1999, dated 2011).

What was measured:
Format in all cases: biochemical
secreted G3 = molecular target: T1, secreted G3 (Homo sapiens, UniProt Q9NY97); test: β1,3-galactosyltransferase activity of the secreted G3; conditions: acceptor substrate, method of Example 11(2)
T1 construct: made in house; host or cells: Sf21 insect cells infected with recombinant baculovirus from pVL1393-F2G3
T1 sequence (Q9NY97 31-397): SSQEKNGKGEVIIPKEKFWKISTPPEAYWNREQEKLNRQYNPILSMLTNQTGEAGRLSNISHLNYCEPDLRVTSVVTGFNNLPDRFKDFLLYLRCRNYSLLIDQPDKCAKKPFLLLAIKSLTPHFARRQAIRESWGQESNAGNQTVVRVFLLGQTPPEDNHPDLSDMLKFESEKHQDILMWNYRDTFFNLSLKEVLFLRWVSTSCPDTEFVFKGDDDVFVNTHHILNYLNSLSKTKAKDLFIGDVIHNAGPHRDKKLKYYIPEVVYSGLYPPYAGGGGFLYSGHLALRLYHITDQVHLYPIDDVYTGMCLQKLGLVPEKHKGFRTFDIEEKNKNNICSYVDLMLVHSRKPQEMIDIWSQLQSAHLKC
Procedure: (§1) The glycosyltransferase reaction was carried out as follows. The reaction was carried out at 37° C. for 16 hours in 40 μl of an assay solution [50 mmol/l MOPS (pH 7.5), 5 mmol/l UDP-GlcNAc (SIGMA), 5 mmol/l MnCl2, 10 mmol/l of a sugar chain substrate and 10 μl of the above eluate]. Next, the reaction solution was treated at 100° C. for 5 minutes and then centrifuged at 10,000×g for 20 minutes to obtain the supernatant, and a portion thereof was analyzed by using HPAE/PAD (High Performance Anion Pulsed Amperometoric Detection; manufactured by DIONEX). The specific method was carried out in the usual way [Anal. Biochem., 189, 151 (1990), J. Biol. Chem., 273, 433 (1998)].
On the other hand, when β1,3-galactosyltransferase activity of the secreted G3 was measured by using GlcNAc and GlcNAcβ1-3Galβ1-4Glc as acceptor substrates, the activity was not detected. […] The method described in Example 11(2) was used.

secretory G4 = molecular target: T2, secretory G4 (Homo sapiens, UniProt Q9Y2A9, R328H); test: β1,3-galactosyltransferase activity of the secretory G4; conditions: receptor substrate 10 mmol/l, 37° C., 16 hours
T2 construct: made in house; host or cells: Sf21 insect cells infected with recombinant baculovirus from pVL1393-F2G4
T2 sequence (Q9Y2A9 38-372 R328H): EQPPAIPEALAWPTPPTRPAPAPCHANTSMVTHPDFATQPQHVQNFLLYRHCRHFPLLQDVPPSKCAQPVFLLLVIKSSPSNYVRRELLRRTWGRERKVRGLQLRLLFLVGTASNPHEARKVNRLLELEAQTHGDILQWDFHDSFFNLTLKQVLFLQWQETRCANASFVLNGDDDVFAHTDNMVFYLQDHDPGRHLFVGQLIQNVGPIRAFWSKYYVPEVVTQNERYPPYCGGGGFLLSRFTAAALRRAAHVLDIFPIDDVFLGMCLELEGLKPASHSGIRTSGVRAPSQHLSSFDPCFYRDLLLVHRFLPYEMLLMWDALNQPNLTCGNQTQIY
Procedure: On the other hand, when β1,3-galactosyltransferase activity of the secretory G4 was measured by using GlcNAc and GlcNAcβ1-3Galβ1-4Glc as receptor substrates, the activity was not detected.
as §1

secreted G7 = molecular target: T3, secreted G7 (Homo sapiens, UniProt Q9C0J1); test: β1,3-galactosyltransferase activity of the secreted G7; conditions: acceptor substrate, method of Example 11(2)
T3 construct: made in house; host or cells: Sf21 insect cells infected with recombinant baculovirus from pVL1393-F2G7
Procedure: as §1
On the other hand, when β1,3-galactosyltransferase activity of the secreted G7 was measured by using GlcNAc and GlcNAcβ1-3Galβ1-4Glc as acceptor substrates, the activity was not detected. […] The method described in Example 11(2) was used.

Measured: β1,3-galactosyltransferase activity

T3 sequence (Q9C0J1 56-378): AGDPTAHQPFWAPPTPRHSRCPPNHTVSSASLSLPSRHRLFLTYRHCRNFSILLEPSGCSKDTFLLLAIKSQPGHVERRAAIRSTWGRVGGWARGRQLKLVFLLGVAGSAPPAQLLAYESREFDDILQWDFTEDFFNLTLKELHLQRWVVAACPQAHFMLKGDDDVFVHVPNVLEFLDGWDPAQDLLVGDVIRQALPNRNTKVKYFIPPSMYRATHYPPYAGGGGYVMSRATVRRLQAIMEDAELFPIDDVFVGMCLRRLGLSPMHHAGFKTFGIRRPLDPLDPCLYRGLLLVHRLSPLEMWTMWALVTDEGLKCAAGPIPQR

CC(=O)N[C@H]1C(O)O[C@H](CO)[C@@H](O)[C@@H]1O (stereo partly drawn) [GlcNAc, N-acetylglucosamine]
not detected: all assays above

CC(=O)N[C@H]1[C@H](O[C@H]2[C@@H](O)[C@@H](CO)O[C@@H](O[C@H]3[C@H](O)[C@@H](O)C(O)O[C@@H]3CO)[C@@H]2O)O[C@H](CO)[C@@H](O)[C@@H]1O (stereo partly drawn) [GlcNAcβ1-3Galβ1-4Glc]
not detected: all assays above
